Source: PMC9662648 (Journal of the American Chemical Society, 2022)

Test system: SARS-CoV-2 (USA-WA1/2020/NR-52281)
Experiment: Live native virus infection of A549-hACE2 versus A549-hACE2/TMPRSS2 cells
Type: cell-based
Settings: virus 1 h, then compound

SMILES | efficacy against live virus upon overexpression of TMPRSS2
CCOC(=O)C=CC(CC1CCNC1=O)NC(=O)C(Cc1ccccc1)NC(=O)C(N)Cc1ccccc1 (centres unmarked) [SM141] | only a partial loss in efficacy
CCOC(=O)C=CC(CC1CCNC1=O)NC(=O)C(Cc1ccccc1)NC(=O)C(Cc1ccc(F)cc1)NC(=O)OC(C)(C)C (centres unmarked) [SM142] | only a partial loss in efficacy
